# Results reported in patent US6001849A, “Furopyridine, thienopyridine pyrrolopyridine useful in controlling chemical synaptic transmission” (Abbott Laboratories, priority 1997, dated 1999).
# Where a name gives a salt, the structure may show the parent alone.
# Molecular target: neuronal nicotinic acetylcholine receptors
# Test: [3H]-cytisine ligand-receptor binding assay (crude synaptic membranes from whole rat brain)
# Settings: Table 1; [3H]-cytisine 1.25 nM, 4° C., 60 min; Ki by Cheng and Prusoff; read-out: [^3 H]-Cyt Binding
# Protocol: For the purpose of identifying compounds as nicotinic acetylcholinergic agents which are capable of interacting with neuronal nicotinic acetylcholine receptors in the brain, a ligand-receptor binding assay was carried out as the initial screen. Compounds of the present invention were effective at interacting with neuronal nicotinic acetylcholine receptors as assayed for their ability to displace radioligand from neuronal nicotinic acetylcholine receptors labeled with [^3 H]-cytisine ([^3 H]-CYT).
# A. Protocol For Determination of Nicotinic Acetylcholine Receptor Binding Potencies of Ligands
# Binding of [^3 H]-CYT to nicotinic acetylcholine receptors was accomplished using crude synaptic membrane preparations from whole rat brain (Pabreza et al., Molecular Pharmacol., 1990, 39:9). Washed membranes were stored at -80° C. prior to use. Frozen aliquots were slowly thawed and resuspended in 20 volumes of buffer (containing: 120 mM NaCl, 5 mM KCl, 2 mM MgCl2, 2 mM CaCl2 and 50 mM Tris-Cl, pH 7.4 @4° C.). After centrifuging at 20,000×g for 15 minutes, the pellets were resuspended in 30 volumes of buffer. Homogenate (containing 125-150 μg protein) was added to triplicate tubes containing concentrations of test compound and [^3 H]-CYT (1.25 nM) in a final volume of 500 μL. Samples were incubated for 60 minutes at 4° C., then rapidly filtered through Whatman GF/B filters presoaked in 0.5% polyethylimine using 3×4 mL of ice-cold buffer. The filters were counted in 4 mL of Ecolume® (ICN). Nonspecific binding was determined in the presence of 10 μM (-)-nicotine and values were expressed as a percentage of total binding.
row,Structure (SMILES),Ki [nM]
1,"c1cnc2cc([C@H]3C[C@@H]4CC[C@H]3N4)oc2c1 (relative stereo) [Example 52, (±)-2-(7-aza-2-exo-bicyclo[2.2.1]heptyl)furo[3,2-b]pyridine dihydrochloride]",0.86
2,"CN1CCC[C@H]1c1cc2ncccc2o1.Cl.Cl [Example 1, 2-(1-methyl-2-(S)-pyrrolidinyl)furo[3,2-b]pyridine dihydrochloride]",2.7
3,"Cl.Cl.c1cnc2cc([C@@H]3CCCN3)oc2c1 [Example 2, 2-(2-(S)-pyrrolidinyl)furo[3,2-b]pyridine dihydrochloride]",76
4,"Cl.Cl.c1cnc2cc([C@H]3CCCN3)oc2c1 [Example 3, 2-(2-(R)-pyrrolidinyl)furo[3,2-b]pyridine dihydrochloride]",4.1
5,"CN1CCC[C@@H]1c1cc2ncccc2o1 [Example 4, 2-(1-methyl-2-(R)-pyrrolidinyl)furo[3,2-b]pyridine dihydrochloride]",17.5
6,"Cc1ccc2oc([C@@H]3CCCN3C)cc2n1.Cl.Cl [Example 6, 2-(1-methyl-2-(S)-pyrrolidinyl)-5-methylfuro[3,2-b]pyridine dihydrochloride]",4.7
7,"CN1CCC[C@H]1c1cc2ncc(Cl)cc2o1 [Example 8, 6-chloro-2-(1-methyl-2-(S)-pyrrolidinyl)-furo[3,2-b]pyridinedihydrochloride]",27
8,"CN1CCC[C@H]1c1cc2nc(Cl)ccc2o1 [Example 12, 5-chloro-2-(1-methyl-2-(S)-pyrrolidinyl)-furo[3,2-b]pyridinehydrochloride]",4.1
9,"Cl.c1cnc2cc(C34CCCN3CCC4)oc2c1 [Example 15, 2-(Hexahydro-1H-7a-pyrrolizinyl)furo[3,2-b]pyridine hydrochloride]",0.45
10,"Cc1ccc2oc(C34CCCN3CCC4)cc2n1 [Example 16, 2-(Hexahydro-1H-7a-pyrrolizinyl)-5-methylfuro[3,2-b]pyridinedihydrochloride]",5.8
11,"c1cnc2cc(C34CCCN3CCC4)sc2c1 [Example 24, 2-(Hexahydro-1H-7a-pyrrolizinyl)thieno[3,2-b]pyridine hydrochloride]",2

# Same assay, conditions: preferred compounds
row,Structure (SMILES),binding to the nicotinic acetylcholine receptor (in words)
1,"Cl.c1cnc2cc(C34CCCN3CCC4)oc2c1 [Example 15, 2-(Hexahydro-1H-7a-pyrrolizinyl)furo[3,2-b]pyridine hydrochloride]",most potent binders

# Tested on: neuronal nicotinic acetylcholine receptors in IMR-32 cells
# Test: 86Rb+ efflux assay in IMR-32 neuroblastoma cells
# Format: cell-based, human
# Settings: Table 1; inhibition of efflux elicited by 100 μM (S)-nicotine; 10 μM
# Protocol: (§1) B. Protocols for the Determination of Functional Effects of Nicotinic Acetylcholine Receptor Ligands on Synaptic Transmission
# Experimental cells were seeded at a density of 500,000 cells/mL into a 24-well tissue culture dish. Plated cells were allowed to proliferate for at least 48 hours before loading with 2 μCi/mL of ^86 Rb^+ (35 Ci/mmol) overnigh at 37° C.
row,Structure (SMILES),IMR-32 % Inhibition @ 10 μM [%]
1,"Cl.Cl.c1cnc2cc([C@@H]3CCCN3)oc2c1 [Example 2, 2-(2-(S)-pyrrolidinyl)furo[3,2-b]pyridine dihydrochloride]",24
2,"Cc1ccc2oc([C@@H]3CCCN3C)cc2n1.Cl.Cl [Example 6, 2-(1-methyl-2-(S)-pyrrolidinyl)-5-methylfuro[3,2-b]pyridine dihydrochloride]",4
3,"CN1CCC[C@H]1c1cc2ncc(Cl)cc2o1 [Example 8, 6-chloro-2-(1-methyl-2-(S)-pyrrolidinyl)-furo[3,2-b]pyridinedihydrochloride]",9
4,"Cc1ccc2oc(C34CCCN3CCC4)cc2n1 [Example 16, 2-(Hexahydro-1H-7a-pyrrolizinyl)-5-methylfuro[3,2-b]pyridinedihydrochloride]",10

# Same assay, conditions: Table 1; inhibition of efflux elicited by 100 μM (S)-nicotine; 30 μM
row,Structure (SMILES),IMR-32 % Inhibition @ (30 μM) [%]
1,"CN1CCC[C@H]1c1cc2ncccc2o1.Cl.Cl [Example 1, 2-(1-methyl-2-(S)-pyrrolidinyl)furo[3,2-b]pyridine dihydrochloride]",16

# Same assay, conditions: Table 1; maximal response, percent relative to 100 μM (S)-nicotine
row,Structure (SMILES),IMR-32 % max [%]
1,"c1cnc2cc([C@H]3C[C@@H]4CC[C@H]3N4)oc2c1 (relative stereo) [Example 52, (±)-2-(7-aza-2-exo-bicyclo[2.2.1]heptyl)furo[3,2-b]pyridine dihydrochloride]",69
2,"CN1CCC[C@H]1c1cc2ncccc2o1.Cl.Cl [Example 1, 2-(1-methyl-2-(S)-pyrrolidinyl)furo[3,2-b]pyridine dihydrochloride]",7
3,"Cl.Cl.c1cnc2cc([C@H]3CCCN3)oc2c1 [Example 3, 2-(2-(R)-pyrrolidinyl)furo[3,2-b]pyridine dihydrochloride]",58
4,"CN1CCC[C@H]1c1cc2ncc(Cl)cc2o1 [Example 8, 6-chloro-2-(1-methyl-2-(S)-pyrrolidinyl)-furo[3,2-b]pyridinedihydrochloride]",0
5,"CN1CCC[C@H]1c1cc2nc(Cl)ccc2o1 [Example 12, 5-chloro-2-(1-methyl-2-(S)-pyrrolidinyl)-furo[3,2-b]pyridinehydrochloride]",11
6,"Cl.c1cnc2cc(C34CCCN3CCC4)oc2c1 [Example 15, 2-(Hexahydro-1H-7a-pyrrolizinyl)furo[3,2-b]pyridine hydrochloride]",43
7,"Cc1ccc2oc(C34CCCN3CCC4)cc2n1 [Example 16, 2-(Hexahydro-1H-7a-pyrrolizinyl)-5-methylfuro[3,2-b]pyridinedihydrochloride]",0

# Molecular target: T1, α4 and β2 nicotinic acetylcholine subunits (K177 cells) (Homo sapiens, UniProt P17787+P43681)
# T1 construct: expressed in transfected cells
# Test: 86Rb+ efflux assay in K177 cells (HEK 293 stably transfected with α4 and β2 nicotinic acetylcholine subunits)
# Format: cell-based
# Settings: K177, read-out: K177 % Inhibition @ 10 μM
# Protocol: as §1
# Cells of the IMR-32 human neuroblastoma clonal cell line (ATCC, Rockville, Md.) were maintained in a log phase of growth according to established procedures (Lukas, R. J., J. Pharmacol. Exp. Ther., 265: 294-302, 1993). Experimental cells were seeded at a density of 500,000 cells/mL into a 24-well tissue culture dish. Plated cells were allowed to proliferate for at least 48 hours before loading with 2 μCi/mL of ^86 Rb^+ (35 Ci/mmol) overnigh at 37° C. The ^86 Rb^+ efflux assays were performed according to previously published protocols (Lukas, 1993) except serum-free Dulbecco's Modified Eagle's Medium was used during the ^86 Rb^+ loading, rinsing, and agonist-induced efflux steps.
# Cells of the K177 cell line, resulting from stable transfection of the human embryonic kidney (HEK) 293 cell line with the cDNA of the α4 and β2 nicotinic acetylcholine subunits (Gopalakrishnan, et al, J. Pharmacol. Expt. Ther. 1996, 276, 289-297), were maintained in a log phase of growth according to established procedures (Gopalakrishnan, et al., loc. cit.). The cells were plated onto poly-lysine coated 24-well Costar plates (Cambridge, Mass.) at a density of 250,000 cells/well. When confluent, the cells were loaded with ^86 Rb^+ and agonist-induced efflux was assessed as reported above for IMR-32 cells.
# Maximal responses (reported as percent relative to the response elicited by 100 μM (S)-nicotine) are shown for selected compounds of the invention. The inhibition data (given for other selected compounds) reflect inhibition of the efflux elicited by 100 μM (S)-nicotine at the indicated concentration. […] This finding is in agreement with the results of others who have linked dopamine release, which is dependent upon the ion flux in synaptic transmission, to binding at nicotinic receptors (cf., for example, Lippiello and Caldwell, U.S. Pat. No. 5,242,935, issued Sept. 7, 1993; Caldwell and Lippielo, U.S. Pat. No. 5,248,690, issued Sept. 28, 1993; and Wonnacott et al., Prog. Brain Res; 79: 157-163 (1989)).
# T1 sequence (P43681 29-627 limits assumed): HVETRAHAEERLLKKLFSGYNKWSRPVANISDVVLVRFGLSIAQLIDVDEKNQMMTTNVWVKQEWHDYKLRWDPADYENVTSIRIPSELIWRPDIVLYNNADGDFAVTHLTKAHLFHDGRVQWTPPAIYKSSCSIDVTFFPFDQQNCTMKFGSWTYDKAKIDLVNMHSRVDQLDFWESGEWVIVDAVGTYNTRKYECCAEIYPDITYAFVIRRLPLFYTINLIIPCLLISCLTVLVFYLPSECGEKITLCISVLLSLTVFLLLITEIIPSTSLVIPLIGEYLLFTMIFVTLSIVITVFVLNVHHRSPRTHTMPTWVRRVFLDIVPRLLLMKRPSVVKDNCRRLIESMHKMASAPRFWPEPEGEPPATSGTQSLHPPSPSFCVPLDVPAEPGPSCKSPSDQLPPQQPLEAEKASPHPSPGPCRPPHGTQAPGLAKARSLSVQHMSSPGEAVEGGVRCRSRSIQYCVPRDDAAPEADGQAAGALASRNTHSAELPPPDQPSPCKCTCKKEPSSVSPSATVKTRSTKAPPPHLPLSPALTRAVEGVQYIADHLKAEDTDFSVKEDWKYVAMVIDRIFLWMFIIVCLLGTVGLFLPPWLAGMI
# T1 sequence (P17787 26-502): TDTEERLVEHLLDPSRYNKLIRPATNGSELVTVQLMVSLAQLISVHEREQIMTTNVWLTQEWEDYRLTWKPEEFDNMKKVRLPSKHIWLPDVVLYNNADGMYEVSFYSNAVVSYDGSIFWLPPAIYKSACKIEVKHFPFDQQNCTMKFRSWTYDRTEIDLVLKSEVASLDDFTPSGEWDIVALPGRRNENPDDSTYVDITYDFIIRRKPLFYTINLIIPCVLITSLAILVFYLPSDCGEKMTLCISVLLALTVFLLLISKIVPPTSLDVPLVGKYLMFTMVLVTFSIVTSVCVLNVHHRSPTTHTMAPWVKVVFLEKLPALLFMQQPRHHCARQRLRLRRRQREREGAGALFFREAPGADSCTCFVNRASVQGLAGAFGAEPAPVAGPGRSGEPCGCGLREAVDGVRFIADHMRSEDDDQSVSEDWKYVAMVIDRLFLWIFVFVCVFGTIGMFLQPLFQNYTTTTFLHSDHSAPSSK
row,Structure (SMILES),inhibition at 10 µM [%]
1,"CN1CCC[C@H]1c1cc2ncc(Cl)cc2o1 [Example 8, 6-chloro-2-(1-methyl-2-(S)-pyrrolidinyl)-furo[3,2-b]pyridinedihydrochloride]",45

# Same assay, conditions: K177, read-out: K177 % max
row,Structure (SMILES),Emax [%]
1,"CN1CCC[C@H]1c1cc2ncc(Cl)cc2o1 [Example 8, 6-chloro-2-(1-methyl-2-(S)-pyrrolidinyl)-furo[3,2-b]pyridinedihydrochloride]",3

# Same assay, conditions: K177; Table 1; inhibition of efflux elicited by 100 μM (S)-nicotine; 10 μM; read-out: K177 % Inhibition @ 10 μM
row,Structure (SMILES),inhibition at 10 µM [%]
1,"c1cnc2cc(C34CCCN3CCC4)sc2c1 [Example 24, 2-(Hexahydro-1H-7a-pyrrolizinyl)thieno[3,2-b]pyridine hydrochloride]",60

# Same assay, conditions: K177; Table 1; maximal response, percent relative to 100 μM (S)-nicotine; read-out: K177 % max
row,Structure (SMILES),Emax [%]
1,"c1cnc2cc([C@H]3C[C@@H]4CC[C@H]3N4)oc2c1 (relative stereo) [Example 52, (±)-2-(7-aza-2-exo-bicyclo[2.2.1]heptyl)furo[3,2-b]pyridine dihydrochloride]",36
2,"CN1CCC[C@H]1c1cc2ncccc2o1.Cl.Cl [Example 1, 2-(1-methyl-2-(S)-pyrrolidinyl)furo[3,2-b]pyridine dihydrochloride]",79
3,"Cl.Cl.c1cnc2cc([C@@H]3CCCN3)oc2c1 [Example 2, 2-(2-(S)-pyrrolidinyl)furo[3,2-b]pyridine dihydrochloride]",0
4,"Cl.Cl.c1cnc2cc([C@H]3CCCN3)oc2c1 [Example 3, 2-(2-(R)-pyrrolidinyl)furo[3,2-b]pyridine dihydrochloride]",34
5,"CN1CCC[C@@H]1c1cc2ncccc2o1 [Example 4, 2-(1-methyl-2-(R)-pyrrolidinyl)furo[3,2-b]pyridine dihydrochloride]",63
6,"Cc1ccc2oc([C@@H]3CCCN3C)cc2n1.Cl.Cl [Example 6, 2-(1-methyl-2-(S)-pyrrolidinyl)-5-methylfuro[3,2-b]pyridine dihydrochloride]",68
7,"CN1CCC[C@H]1c1cc2nc(Cl)ccc2o1 [Example 12, 5-chloro-2-(1-methyl-2-(S)-pyrrolidinyl)-furo[3,2-b]pyridinehydrochloride]",41
8,"Cl.c1cnc2cc(C34CCCN3CCC4)oc2c1 [Example 15, 2-(Hexahydro-1H-7a-pyrrolizinyl)furo[3,2-b]pyridine hydrochloride]",9
9,"Cc1ccc2oc(C34CCCN3CCC4)cc2n1 [Example 16, 2-(Hexahydro-1H-7a-pyrrolizinyl)-5-methylfuro[3,2-b]pyridinedihydrochloride]",109
10,"c1cnc2cc(C34CCCN3CCC4)sc2c1 [Example 24, 2-(Hexahydro-1H-7a-pyrrolizinyl)thieno[3,2-b]pyridine hydrochloride]",14
